In PubChem BioAssay (NCI):
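The compound was tested at five concentrations on cells cultured in 96-well plates, with a 48-hour exposure period. The concentration for full growth arrest is given as TGI.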

Assays:
Test in all cases: DTP human tumour cell line panel, 48 h
HOP-92 NSCLC = system: HOP-92 NSCLC
SNB-19 CNS = system: SNB-19 CNS
SF-295 CNS = system: SF-295 CNS
SF-539 CNS = system: SF-539 CNS
NCI-H522 lung = system: NCI-H522 lung
HOP-18 NSCLC = system: HOP-18 NSCLC
RPMI-8226 leukemia = system: RPMI-8226 leukemia
A549 NSCLC = system: A549 NSCLC
XF 498 CNS = system: XF 498 CNS
SF-268 CNS = system: SF-268 CNS
SNB-75 CNS = system: SNB-75 CNS
HCC-2998 colon = system: HCC-2998 colon
ACHN renal = system: ACHN renal
HOP-62 NSCLC = system: HOP-62 NSCLC
M19-MEL melanoma = system: M19-MEL melanoma
UACC-62 melanoma = system: UACC-62 melanoma
DLD-1 colon = system: DLD-1 colon
NCI-H226 lung = system: NCI-H226 lung
CCRF-CEM leukemia = system: CCRF-CEM leukemia
HCT-116 colon = system: HCT-116 colon
IGROV1 ovarian = system: IGROV1 ovarian
NCI-H23 lung = system: NCI-H23 lung
LXFL 529 NSCLC = system: LXFL 529 NSCLC
EKVX NSCLC = system: EKVX NSCLC
DMS 114 small cell lung = system: DMS 114 small cell lung
RXF 393 renal = system: RXF 393 renal
A498 renal = system: A498 renal
786-0 renal = system: 786-0 renal
K-562 leukemia = system: K-562 leukemia
SW-620 colon = system: SW-620 colon
SK-MEL-28 melanoma = system: SK-MEL-28 melanoma
KM20L2 colon = system: KM20L2 colon
HCT-15 colon = system: HCT-15 colon
OVCAR-4 ovarian = system: OVCAR-4 ovarian
SNB-78 CNS = system: SNB-78 CNS
HT29 colon = system: HT29 colon
UACC-257 melanoma = system: UACC-257 melanoma
UO-31 renal = system: UO-31 renal
OVCAR-8 ovarian = system: OVCAR-8 ovarian
M14 melanoma = system: M14 melanoma
MALME-3M melanoma = system: MALME-3M melanoma
HL-60(TB) leukemia = system: HL-60(TB) leukemia
MOLT-4 leukemia = system: MOLT-4 leukemia
SK-OV-3 ovarian = system: SK-OV-3 ovarian
SK-MEL-5 melanoma = system: SK-MEL-5 melanoma
COLO 205 colon = system: COLO 205 colon
SR leukemia = system: SR leukemia
SN12C renal = system: SN12C renal
U251 CNS = system: U251 CNS

Measured: TGI

Cc1occ2c1C(=O)CC1C2[C@@H](O)CC2C(C)(C)CCC[C@]12C (some centres undefined)
> 100 µM: HOP-92 NSCLC | SNB-19 CNS | SF-295 CNS | SF-539 CNS | NCI-H522 lung | HOP-18 NSCLC | RPMI-8226 leukemia | A549 NSCLC | XF 498 CNS | SF-268 CNS | SNB-75 CNS | HCC-2998 colon | ACHN renal | HOP-62 NSCLC | M19-MEL melanoma | UACC-62 melanoma | DLD-1 colon | NCI-H226 lung | CCRF-CEM leukemia | HCT-116 colon | IGROV1 ovarian | NCI-H23 lung | LXFL 529 NSCLC | EKVX NSCLC | DMS 114 small cell lung | RXF 393 renal | A498 renal | 786-0 renal | K-562 leukemia | SW-620 colon | SK-MEL-28 melanoma | KM20L2 colon | HCT-15 colon | OVCAR-4 ovarian | SNB-78 CNS | HT29 colon | UACC-257 melanoma | UO-31 renal | OVCAR-8 ovarian | M14 melanoma | MALME-3M melanoma | HL-60(TB) leukemia | MOLT-4 leukemia | SK-OV-3 ovarian | SK-MEL-5 melanoma | COLO 205 colon | SR leukemia | SN12C renal | U251 CNS
